Assay results published in ChEMBL document CHEMBL4382223, “Design, synthesis and biological evaluation of anthranilamide derivatives as potential factor Xa (fXa) inhibitors” (Bioorg Med Chem, 2018).
pIC50: −log10 of the molar value. Activity calls are given as the source filed them. No cut-off for these calls is given here.

Columns and labels:
[1] = target: Coagulation factor X (Homo sapiens, UniProt P00742); assay: Inhibition of human factor Xa using S-2222 as substrate preincubated for 30 mins followed by substrate addition and measured for 20 mins
Coagulation factor X, sequence (P00742 41-179 limits assumed): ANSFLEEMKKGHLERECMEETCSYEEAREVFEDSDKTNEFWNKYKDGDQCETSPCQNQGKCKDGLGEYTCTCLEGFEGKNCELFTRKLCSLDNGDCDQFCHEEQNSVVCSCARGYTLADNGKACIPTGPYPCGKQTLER
Coagulation factor X, sequence (P00742 235-488 limits assumed): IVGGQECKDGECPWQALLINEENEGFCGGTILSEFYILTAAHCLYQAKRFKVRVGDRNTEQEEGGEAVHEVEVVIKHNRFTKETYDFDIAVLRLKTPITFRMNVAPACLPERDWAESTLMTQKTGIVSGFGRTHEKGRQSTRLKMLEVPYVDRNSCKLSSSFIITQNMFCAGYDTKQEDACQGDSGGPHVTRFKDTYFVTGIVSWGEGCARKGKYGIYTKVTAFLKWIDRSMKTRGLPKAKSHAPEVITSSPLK

[2] = test system: Rattus norvegicus; assay: Antithrombotic activity in rat model of FeCl3-induced venous thrombosis assessed as reduction thrombus weight at 1 mg/kg, po dosed 60 mins before thrombus formation relative to untreated control; assay type: functional; design: scale not given: the % may be the effect or the level left
[3] = test system: Rattus norvegicus; assay: Antithrombotic activity in rat model of arteriovenous shunt thrombosis assessed as reduction thrombus weight at 1 mg/kg, po dosed 90 mins before shunt was opened for 15 mins relative to untreated control; assay type: functional; design: scale not given: the % may be the effect or the level left
[4] = Volume of distribution at steady state in Sprague-Dawley rat at 1 mg/kg, iv by LC-MS analysis; assay type: ADME, organism-based; conditions: in vivo
[5] = Toxicity in rat assessed as prolongation of tail bleeding dosed orally 60 mins before tails of anesthetized rat were transected and measured over 30 mins; assay type: organism-based; conditions: in vivo, po, 0.5 h
[6] = target: Prothrombin (Homo sapiens, UniProt P00734); assay: Inhibition of human recombinant thrombin expressed in HEK293 cells using S-2238 as substrate preincubated for 30 mins followed by substrate addition and measured for 20 mins; assay type: single protein
[7] = AUC (0 to infinity) in Sprague-Dawley rat at 1 mg/kg, iv by LC-MS analysis; assay type: ADME, organism-based; design: dose 1 mg/kg, time infinity, route intravenous; conditions: in vivo
[8] = test system: H9c2; assay: Cytoprotective activity against hypoxia/reoxygenation-induced toxicity in rat H9c2 cells assessed as increase in cell viability at 1 to 10 uM by MTT assay; assay type: functional, cell-based
[9] = AUC (0 to infinity) in Sprague-Dawley rat at 3 mg/kg, po by LC-MS analysis; assay type: ADME, organism-based; design: dose 3 mg/kg, route oral, time infinity; conditions: in vivo
[10] = test system: Rattus norvegicus; assay: Antithrombotic activity in rat model of arteriovenous shunt thrombosis assessed as reduction thrombus weight at 5 mg/kg, po dosed 90 mins before shunt was opened for 15 mins relative to untreated control; assay type: functional; design: scale not given: the % may be the effect or the level left
[11] = test system: Rattus norvegicus; assay: Antithrombotic activity in rat model of FeCl3-induced venous thrombosis assessed as reduction thrombus weight at 5 mg/kg, po dosed 60 mins before thrombus formation relative to untreated control; assay type: functional; design: scale not given: the % may be the effect or the level left
[12] = Oral bioavailability in Sprague-Dawley rat at 3 mg/kg by LC-MS analysis; assay type: ADME, organism-based; conditions: in vivo
[13] = test system: Plasma; assay: Anticoagulant activity in citrated rabbit plasma assessed as concentration required to double activated partial thromboplastin time after 10 mins by coagulometric analysis; assay type: functional, Oryctolagus cuniculus
[14] = test system: Rattus norvegicus; assay: Antithrombotic activity in rat model of FeCl3-induced venous thrombosis assessed as reduction thrombus weight at 10 mg/kg, po dosed 60 mins before thrombus formation relative to untreated control; assay type: functional; design: scale not given: the % may be the effect or the level left
[15] = Elimination half life in Sprague-Dawley rat at 3 mg/kg, po by LC-MS analysis; assay type: ADME, organism-based; conditions: in vivo, read-out: beta t1/2 (converted)
[16] = test system: Rattus norvegicus; assay: Antithrombotic activity in rat model of arteriovenous shunt thrombosis assessed as reduction thrombus weight at 10 mg/kg, po dosed 90 mins before shunt was opened for 15 mins relative to untreated control; assay type: functional; design: scale not given: the % may be the effect or the level left
[17] = Toxicity in rat assessed as prolongation of tail bleeding at 1 to 10 mg/kg, po dosed 60 mins before tails of anesthetized rat were transected and measured over 30 mins; assay type: organism-based; conditions: in vivo, 0.5 h
[18] = Elimination half life in Sprague-Dawley rat at 1 mg/kg, iv by LC-MS analysis; assay type: ADME, organism-based; conditions: in vivo
[19] = Cmax in Sprague-Dawley rat at 3 mg/kg, po by LC-MS analysis; assay type: ADME, organism-based; design: dose 3 mg/kg, route oral; conditions: in vivo
[20] = Plasma clearance in Sprague-Dawley rat at 1 mg/kg, iv by LC-MS analysis; assay type: ADME, organism-based; conditions: in vivo
[21] = test system: Plasma; assay: Anticoagulant activity in citrated rabbit plasma assessed as concentration required to double prothrombin time after 10 mins by coagulometric analysis; assay type: functional, Oryctolagus cuniculus
[22] = Tmax in Sprague-Dawley rat at 3 mg/kg, po by LC-MS analysis; assay type: ADME, organism-based; conditions: in vivo
[23] = species: Homo sapiens; assay: Selectivity ratio of IC50 for human factor 7a to IC50 for human factor Xa
[24] = species: Homo sapiens; assay: Selectivity ratio of IC50 for human trypsin to IC50 for human factor Xa
[25] = species: Homo sapiens; assay: Selectivity ratio of IC50 for human factor 9a to IC50 for human factor Xa
[26] = target: T1, Coagulation factor VII (Homo sapiens, UniProt P08709); assay: Inhibition of human factor 7a preincubated for 30 mins followed by substrate addition and measured for 20 mins
T1 sequence (P08709 whole entry): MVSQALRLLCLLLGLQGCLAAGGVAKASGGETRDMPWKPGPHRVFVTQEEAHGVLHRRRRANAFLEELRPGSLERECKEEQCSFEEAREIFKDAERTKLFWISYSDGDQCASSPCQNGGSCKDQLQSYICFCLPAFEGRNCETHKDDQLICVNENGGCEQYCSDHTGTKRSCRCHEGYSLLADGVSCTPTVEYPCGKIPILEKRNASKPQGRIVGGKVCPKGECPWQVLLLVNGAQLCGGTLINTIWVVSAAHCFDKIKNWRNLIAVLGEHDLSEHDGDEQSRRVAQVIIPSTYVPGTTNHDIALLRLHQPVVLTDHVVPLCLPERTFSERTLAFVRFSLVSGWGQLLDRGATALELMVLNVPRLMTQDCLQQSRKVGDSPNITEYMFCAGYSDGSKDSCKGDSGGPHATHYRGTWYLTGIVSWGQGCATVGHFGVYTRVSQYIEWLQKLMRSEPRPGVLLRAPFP

[27] = species: Homo sapiens; assay: Selectivity ratio of IC50 for human recombinant thrombin expressed in HEK293 cells to IC50 for human factor Xa; assay type: cell-based
[28] = target: Trypsin (Homo sapiens, UniProt P07477+P07478+P35030); assay: Inhibition of human trypsin preincubated for 30 mins followed by substrate addition and measured for 20 mins; assay type: protein assay
[29] = target: Coagulation factor IX (Homo sapiens, UniProt P00740); assay: Inhibition of human factor 9a preincubated for 30 mins followed by substrate addition and measured for 20 mins
Coagulation factor IX, sequence (P00740 47-191 limits assumed): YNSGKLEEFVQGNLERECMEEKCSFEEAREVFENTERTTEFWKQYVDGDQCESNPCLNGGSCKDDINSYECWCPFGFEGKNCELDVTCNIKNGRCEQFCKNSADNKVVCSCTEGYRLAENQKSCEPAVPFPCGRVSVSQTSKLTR
Coagulation factor IX, sequence (P00740 227-461 limits assumed): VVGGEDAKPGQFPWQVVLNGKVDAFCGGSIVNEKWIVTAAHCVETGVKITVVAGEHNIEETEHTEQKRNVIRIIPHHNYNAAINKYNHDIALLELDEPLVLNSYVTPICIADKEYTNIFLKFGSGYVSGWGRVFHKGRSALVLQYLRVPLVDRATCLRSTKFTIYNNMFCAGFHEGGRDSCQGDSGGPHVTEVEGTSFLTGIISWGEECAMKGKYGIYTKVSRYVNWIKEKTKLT

[30] = test system: Rattus norvegicus; assay: Antithrombotic activity in rat model of FeCl3-induced venous thrombosis dosed orally 60 mins before thrombus formation; assay type: functional, organism-based
[31] = test system: Rattus norvegicus; assay: Antithrombotic activity in rat model of arteriovenous shunt thrombosis dosed orally 90 mins before shunt was opened for 15 mins; assay type: functional, organism-based

COc1ccc(NC(=O)c2ccc(N3CCCCC3=O)cc2)c(C(=O)Nc2ccc(Cl)cc2)c1
pIC50 [1]: 6.61

COc1ccc(NC(=O)c2ccc(N3CCCCC3=O)cc2)c(C(=O)Nc2ccccc2OC)c1
pIC50 [1]: 5.50

COc1ccc(NC(=O)c2nc3c(s2)CN(C)CC3)c(C(=O)Nc2ccc(Cl)s2)c1
pIC50 [1]: 5.86

COc1ccc(NC(=O)c2cc(OC)ccc2NC(=O)c2ccc(N3CCCCC3=O)cc2)cc1
pIC50 [1]: 6.29

COc1ccc(NC(=O)c2nc3c(s2)CN(C)CC3)c(C(=O)Nc2ccc(F)cn2)c1
pIC50 [1]: 7.62

COc1ccc(NC(=O)c2ccc(C(=N)N(C)C)cc2)c(C(=O)Nc2ccc(Cl)cn2)c1 [BETRIXABAN]
Activity [2]: 27%
Activity [3]: 24%
Vdss [4]: 0.191 L/kg
Activity [5]: Dose-dependent effect
pIC50 [6]: 4.74
AUC [7]: 1832 ng·h/mL
Activity [8]: inactive
AUC [9]: 571 ng·h/mL
Activity [10]: 43%
Activity [11]: 38%
F [12]: 30.2%
2aPTT [13]: 1.1 µM
Activity [14]: 59%
half-life [15]: 8.6 h
Activity [16]: 61%
Activity [17]: Toxic
beta t1/2 [18]: 7.8 h
Cmax [19]: 146 ng/mL
CL [20]: 22.7 mL/min/kg
2PT [21]: 2.4 µM
Tmax [22]: 2.6 h

COc1ccc(NC(=O)c2ccc(N3CCOCC3=O)cc2)c(C(=O)Nc2ccccc2OC)c1
pIC50 [1]: 5.81

COc1ccc(NC(=O)c2nc3c(s2)CN(C)CC3)c(C(=O)Nc2ccc(C)cc2)c1
pIC50 [1]: 7.52

COc1ccc(NC(=O)c2ccc(N3CCCCC3=O)cc2)c(C(=O)Nc2ccc(F)cc2)c1
pIC50 [1]: 5.97

COc1ccc(NC(=O)c2ccc(N3CCCCC3=O)cc2)c(C(=O)Nc2cccc(F)c2)c1
pIC50 [1]: 7.35

COc1ccc(NC(=O)c2ccc(N3CCOCC3=O)cc2)c(C(=O)Nc2ccc(Cl)cc2)c1
pIC50 [1]: 7.74

COc1ccc(NC(=O)c2cc(OC)ccc2NC(=O)c2nc3c(s2)CN(C)CC3)cc1
pIC50 [1]: 6.63

COc1ccc(NC(=O)c2nc3c(s2)CN(C)CC3)c(C(=O)Nc2ccc(C)cn2)c1
pIC50 [1]: 8.00
pIC50 [6]: 4.49
Ratio IC50 [23]: > 1000
2aPTT [13]: 2.2 µM
Ratio IC50 [24]: > 1000
Ratio IC50 [25]: > 1000
pIC50 [26]: 4.96
Ratio IC50 [27]: > 1000
pIC50 [28]: 4.27
2PT [21]: 5.6 µM
pIC50 [29]: 4.38

COc1ccc(NC(=O)c2nc3c(s2)CN(C)CC3)c(C(=O)Nc2ccc(Cl)cn2)c1
pIC50 [1]: 8.46
Activity [2]: 23%
Activity [3]: 30%
Vdss [4]: 0.201 L/kg
Activity [5]: Dose-dependent effect
pIC50 [6]: 5.38
Activity [30]: Dose-dependent effect
Ratio IC50 [23]: > 1000
AUC [7]: 2258 ng·h/mL
Activity [8]: Active
AUC [9]: 1160 ng·h/mL
Activity [10]: 50%
Activity [11]: 36%
F [12]: 51.3%
2aPTT [13]: 0.5 µM
Activity [14]: 54%
half-life [15]: 9.6 h
Ratio IC50 [24]: > 1000
Ratio IC50 [25]: > 1000
Activity [16]: 67%
Activity [31]: Dose-dependent effect
pIC50 [26]: 4.92
Activity [17]: Toxic
beta t1/2 [18]: 8.8 h
Cmax [19]: 221 ng/mL
Ratio IC50 [27]: > 1000
CL [20]: 15.3 mL/min/kg
pIC50 [28]: 5.04
2PT [21]: 0.8 µM
Tmax [22]: 3.2 h
pIC50 [29]: 4.44

COc1ccc(NC(=O)c2nc3c(s2)CN(C)CC3)c(C(=O)Nc2cccc(Cl)c2)c1
pIC50 [1]: 6.50

COc1ccc(NC(=O)c2ccc(N3CCOCC3=O)cc2)c(C(=O)Nc2ccc(C(C)(C)C)cc2)c1
pIC50 [1]: 5.68

COc1ccc(NC(=O)c2ccc(N3CCCC3=O)cc2)c(C(=O)Nc2ccc(Cl)cc2)c1
pIC50 [1]: 6.19

COc1ccc(NC(=O)c2ccc(N3CCCCC3=O)cc2)c(C(=O)Nc2ccc(C(C)(C)C)cc2)c1
pIC50 [1]: 6.57

COc1ccc(NC(=O)c2cc(OC)ccc2NC(=O)c2ccc(N3CCOCC3=O)cc2)cc1
pIC50 [1]: 7.11

COc1ccc(NC(=O)c2nc3c(s2)CN(C)CC3)c(C(=O)Nc2ccc(Cl)cc2)c1
pIC50 [1]: 8.32
pIC50 [6]: 5.15
Ratio IC50 [23]: > 1000
2aPTT [13]: 0.8 µM
Ratio IC50 [24]: > 1000
Ratio IC50 [25]: > 1000
pIC50 [26]: 5.33
Ratio IC50 [27]: > 1000
pIC50 [28]: 4.74
2PT [21]: 1.3 µM
pIC50 [29]: 4.59

COc1ccc(NC(=O)c2ccc(-n3ccccc3=O)cc2)c(C(=O)Nc2ccc(Cl)cc2)c1
pIC50 [1]: 6.75

O=C(NC[C@H]1CN(c2ccc(N3CCOCC3=O)cc2)C(=O)O1)c1ccc(Cl)s1
Activity [8]: Active

COc1cccc(NC(=O)c2cc(OC)ccc2NC(=O)c2nc3c(s2)CN(C)CC3)c1
pIC50 [1]: 6.01

C#Cc1ccc(NC(=O)c2cc(OC)ccc2NC(=O)c2nc3c(s2)CN(C)CC3)cc1
pIC50 [1]: 7.70
